Assay results as given in patent US20260138958A1, “SUBSTITUTED N-PHENYLURACILS AND SALTS THEREOF, AND USE THEREOF AS HERBICIDAL ACTIVE SUBSTANCES” (Bayer Aktiengesellschaft, priority 2022, published 2026).

What was measured:
Assay type in all cases: in vivo
[1] = system: Abutilon theophrasti (ABUTH); experiment: Post-emergence herbicidal action, greenhouse pot test
How it was run: (§1)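 Weeds grown in sandy loam under controlled greenhouse conditions were sprayed at the one-leaf stage, 2 to 3 weeks after sowing, with WP or EC formulations as aqueous suspension or emulsion plus 0.5% additive at 600 l/ha water. Damage was scored visually after about 3 weeks versus untreated controls (0% = like control, 100% = dead).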

[2] = system: Alopecurus myosuroides (ALOMY); experiment: as above
How it was run: as §1

[3] = system: Amaranthus retroflexus (AMARE); experiment: as above
How it was run: as §1

Bassia scoparia (KCHSC) = experiment: as above
How it was run: as §1

[4] = system: Digitaria sanguinalis (DIGSA); experiment: as above
How it was run: as §1

[5] = system: Echinochloa crus-galli (ECHCG); experiment: as above
How it was run: as §1

[6] = system: Pharbitis purpurea (PHBPU); experiment: as above
How it was run: as §1

[7] = system: Polygonum convolvulus (POLCO); experiment: as above
How it was run: as §1

Setaria viridis (SETVI) = experiment: as above
How it was run: as §1

[8] = system: Tripleurospermum inodorum (MATIN); experiment: as above
How it was run: as §1

Veronica persica (VERPE) = experiment: as above
How it was run: as §1

Viola tricolor (VIOTR) = experiment: as above
How it was run: as §1

[9] = system: Triticum aestivum (TRZAS); experiment: Post-emergence crop plant compatibility, greenhouse pot test
How it was run: (§2)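 Crops grown in sandy loam in the greenhouse were sprayed post-emergence at the one-leaf stage, 2–3 weeks after sowing, with WP or EC formulations plus 0.5% additive at 600 l/ha water. Damage was rated visually after about 3 weeks against untreated controls (0% = like control, 100% = dead).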

harmful plants = experiment: Post-emergence herbicidal action, summary statements over several weeds; conditions: 20 g or less per hectare, ALOMY, ECHCG, AVEFA, VERPE
Procedure: (§3) Seeds of monocotyledonous and dicotyledonous weeds and crop plants were placed in sandy loam in plastic or wood-fibre pots, covered with soil and cultivated in a greenhouse under controlled growth conditions. 2 to 3 weeks after sowing, the test plants were treated at the one-leaf stage. The compounds of the invention, formulated in the form of wettable powders (WP) or as emulsion concentrates (EC), were then sprayed onto the green parts of the plants as aqueous suspension or emulsion with addition of 0.5% additive at a water application rate of 600 l/ha (converted). After the test plants had been kept in the greenhouse under optimum growth conditions for about 3 weeks, the activity of the preparations was rated visually in comparison to untreated controls. For example, 100% activity=the plants have died, 0% activity=like control plants.

crop plants = experiment: Post-emergence crop plant compatibility, summary statements over several crops; conditions: 5 g or less per hectare, ORYSA, ZEAMX, TRZAS
Procedure: as §3
The observed effects on selected crop plants are reported here in comparison to the untreated controls (values in %).

Lolium rigidum (LOLRI) = experiment: Post-emergence herbicidal action, greenhouse pot test
How it was run: as §1

Oryza sativa (ORYSA) = experiment: Post-emergence crop plant compatibility, greenhouse pot test; conditions: crop plant, post-emergence
How it was run: as §2

Zea mays (ZEAMX) = experiment: as above; conditions: crop plant, post-emergence, 1.25 g/ha
How it was run: as §2

Cn1c(C(F)(F)F)cc(=O)n(-c2cc(Oc3ccccc3OCC(=O)OCC3CCCCC3)c(Cl)cc2F)c1=O [I.7-14]
20%: Post-emergence effect at 1.25 g/ha against TRZAS in % ([9]; Triticum aestivum, in vivo)
100%: Post-emergence effect at 1.25 g/ha against ABUTH in % [1] | pest or weed control at 5 g/ha ([1]; Abutilon theophrasti, 504 h, 5 g/ha, read-out: Post-emergence effect at 5 g/ha against ABUTH in %) | pest or weed control at 20 g/ha ([1]; Abutilon theophrasti, 504 h, 20 g/ha, read-out: Post-emergence effect at 20 g/ha against ABUTH in %) | pest or weed control at 20 g/ha ([2]; Alopecurus myosuroides, 504 h, 20 g/ha, read-out: Post-emergence effect at 20 g/ha against ALOMY in %) | pest or weed control at 1.25 g/ha ([3]; Amaranthus retroflexus, 504 h, 1.25 g/ha, read-out: Post-emergence effect at 1.25 g/ha against AMARE in %) | pest or weed control at 5 g/ha ([3]; Amaranthus retroflexus, 504 h, 5 g/ha, read-out: Post-emergence effect at 5 g/ha against AMARE in %) | pest or weed control at 20 g/ha ([3]; Amaranthus retroflexus, 504 h, 20 g/ha, read-out: Post-emergence effect at 20 g/ha against AMARE in %) | Post-emergence effect at 1.25 g/ha against KCHSC in % (Bassia scoparia (KCHSC); 1.25 g/ha) | Post-emergence effect at 5 g/ha against KCHSC in % (Bassia scoparia (KCHSC); 5 g/ha) | Post-emergence effect at 20 g/ha against KCHSC in % (Bassia scoparia (KCHSC); 20 g/ha) | Post-emergence effect at 5 g/ha against DIGSA in % ([4]; 5 g/ha) | Post-emergence effect at 20 g/ha against DIGSA in % ([4]; 20 g/ha) | Post-emergence effect at 5 g/ha against ECHCG in % [5] | pest or weed control at 20 g/ha ([5]; Echinochloa crus-galli, 504 h, 20 g/ha, read-out: Post-emergence effect at 20 g/ha against ECHCG in %) | Post-emergence effect at 1.25 g/ha against PHBPU in % [6] | pest or weed control at 5 g/ha ([6]; Ipomoea purpurea, 504 h, 5 g/ha, read-out: Post-emergence effect at 5 g/ha against PHBPU in %) | pest or weed control at 20 g/ha ([6]; Ipomoea purpurea, 504 h, 20 g/ha, read-out: Post-emergence effect at 20 g/ha against PHBPU in %) | pest or weed control at 5 g/ha ([7]; Fallopia convolvulus, 504 h, 5 g/ha, read-out: Post-emergence effect at 5 g/ha against POLCO in %) | pest or weed control at 20 g/ha ([7]; Fallopia convolvulus, 504 h, 20 g/ha, read-out: Post-emergence effect at 20 g/ha against POLCO in %) | Post-emergence effect at 1.25 g/ha against SETVI in % (Setaria viridis (SETVI)) | pest or weed control at 5 g/ha (Setaria viridis (SETVI); Setaria viridis, 504 h, 5 g/ha, read-out: Post-emergence effect at 5 g/ha against SETVI in %) | pest or weed control at 20 g/ha (Setaria viridis (SETVI); Setaria viridis, 504 h, 20 g/ha, read-out: Post-emergence effect at 20 g/ha against SETVI in %) | Post-emergence effect at 1.25 g/ha against VERPE in % (Veronica persica (VERPE)) | VERPE (efficacy in %) (Veronica persica (VERPE); Table B4 comparison, application rate 1.25 g/ha) | pest or weed control at 5 g/ha (Veronica persica (VERPE); Veronica persica, 504 h, 5 g/ha, read-out: Post-emergence effect at 5 g/ha against VERPE in %) | pest or weed control at 20 g/ha (Veronica persica (VERPE); Veronica persica, 504 h, 20 g/ha, read-out: Post-emergence effect at 20 g/ha against VERPE in %) | Post-emergence effect at 1.25 g/ha against VIOTR in % (Viola tricolor (VIOTR)) | Post-emergence effect at 5 g/ha against VIOTR in % (Viola tricolor (VIOTR)) | pest or weed control at 20 g/ha (Viola tricolor (VIOTR); Viola tricolor, 504 h, 20 g/ha, read-out: Post-emergence effect at 20 g/ha against VIOTR in %)
90%: Post-emergence effect at 1.25 g/ha against ECHCG in % [5] | pest or weed control at 20 g/ha ([8]; Tripleurospermum inodorum, 504 h, 20 g/ha, read-out: Post-emergence effect at 20 g/ha against MATIN in %)
distinctly improved compatibility: compatibility with crop plants by comparison with a-27, a-29 or a generically encompassed structure (WO2002/098227) (crop plants)
distinctly improved herbicidal efficacy: herbicidal efficacy by comparison with a-27, a-29 or a generically encompassed structure (WO2002/098227) (harmful plants)

Cn1c(C(F)(F)F)cc(=O)n(-c2cc(Oc3ccccc3OCC(=O)OCC3CC3)c(Cl)cc2F)c1=O [I.7-1]
20%: Post-emergence effect at 5 g/ha against ORYSA in % (Oryza sativa (ORYSA); 5 g/ha) | Post-emergence effect at 1.25 g/ha against ZEAMX in % (Zea mays (ZEAMX))
90%: Post-emergence effect at 1.25 g/ha against ABUTH in % [1] | Post-emergence effect at 5 g/ha against ALOMY in % ([2]; 5 g/ha)
0%: Post-emergence effect at 1.25 g/ha against ORYSA in % (Oryza sativa (ORYSA); 1.25 g/ha) | Post-emergence effect at 1.25 g/ha against TRZAS in % ([9]; crop plant, post-emergence, 1.25 g/ha)
80%: Post-emergence effect at 20 g/ha against LOLRI in % (Lolium rigidum (LOLRI)) | Post-emergence effect at 1.25 g/ha against PHBPU in % [6] | Post-emergence effect at 1.25 g/ha against POLCO in % ([7]; 1.25 g/ha) | Post-emergence effect at 1.25 g/ha against MATIN in % ([8]; 1.25 g/ha)
100%: Post-emergence effect at 5 g/ha against ABUTH in % ([1]; 5 g/ha) | Post-emergence effect at 20 g/ha against ABUTH in % ([1]; 20 g/ha) | Post-emergence effect at 20 g/ha against ALOMY in % ([2]; 20 g/ha) | Post-emergence effect at 1.25 g/ha against AMARE in % ([3]; 1.25 g/ha) | Post-emergence effect at 5 g/ha against AMARE in % ([3]; 5 g/ha) | Post-emergence effect at 20 g/ha against AMARE in % ([3]; 20 g/ha) | Post-emergence effect at 1.25 g/ha against ECHCG in % [5] | Post-emergence effect at 5 g/ha against ECHCG in % [5] | Post-emergence effect at 20 g/ha against ECHCG in % ([5]; 20 g/ha) | Post-emergence effect at 5 g/ha against PHBPU in % ([6]; 5 g/ha) | Post-emergence effect at 20 g/ha against PHBPU in % ([6]; 20 g/ha) | Post-emergence effect at 5 g/ha against POLCO in % ([7]; 5 g/ha) | Post-emergence effect at 20 g/ha against POLCO in % ([7]; 20 g/ha) | Post-emergence effect at 1.25 g/ha against SETVI in % (Setaria viridis (SETVI)) | Post-emergence effect at 5 g/ha against SETVI in % (Setaria viridis (SETVI); 5 g/ha) | Post-emergence effect at 20 g/ha against SETVI in % (Setaria viridis (SETVI); 20 g/ha) | Post-emergence effect at 5 g/ha against MATIN in % ([8]; 5 g/ha) | Post-emergence effect at 20 g/ha against MATIN in % ([8]; 20 g/ha) | Post-emergence effect at 1.25 g/ha against VERPE in % (Veronica persica (VERPE)) | Post-emergence effect at 5 g/ha against VERPE in % (Veronica persica (VERPE); 5 g/ha) | Post-emergence effect at 20 g/ha against VERPE in % (Veronica persica (VERPE); 20 g/ha) | Post-emergence effect at 1.25 g/ha against VIOTR in % (Viola tricolor (VIOTR)) | Post-emergence effect at 5 g/ha against VIOTR in % (Viola tricolor (VIOTR)) | Post-emergence effect at 20 g/ha against VIOTR in % (Viola tricolor (VIOTR); 20 g/ha)
